The results in this text go back to PMC9841576, “Characterisation of C101248: A novel selective THIK-1 channel inhibitor for the modulation of microglial NLRP3-inflammasome” (Neuropharmacology, 2023).

One assay concerns the target T1, THIK-1 (Homo sapiens, UniProt Q9HB14).
T1 construct: expressed in transfected cells
T1 sequence (Q9HB14 1-408): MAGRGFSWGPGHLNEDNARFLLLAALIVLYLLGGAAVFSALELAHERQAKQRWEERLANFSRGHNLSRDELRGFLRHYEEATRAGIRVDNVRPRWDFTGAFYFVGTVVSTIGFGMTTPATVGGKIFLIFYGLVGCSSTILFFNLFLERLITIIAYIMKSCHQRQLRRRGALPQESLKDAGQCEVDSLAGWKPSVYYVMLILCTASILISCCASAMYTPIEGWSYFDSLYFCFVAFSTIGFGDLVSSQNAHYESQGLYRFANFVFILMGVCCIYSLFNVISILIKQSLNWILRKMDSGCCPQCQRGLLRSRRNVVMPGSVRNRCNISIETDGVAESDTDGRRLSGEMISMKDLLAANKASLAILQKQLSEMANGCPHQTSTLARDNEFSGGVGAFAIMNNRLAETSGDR
In words: Whole-cell manual patch clamp of HEK-hTHIK-1 cells with rapid perfusion exchanger. In kind it is cell-based. Particulars: current at 50 mV. On the procedure:
Cells were plated onto uncoated, sterile glass coverslips at a density of 1 × 10^6 cells/ml in a droplet of approximately 200 μl and incubated at 37 °C/5% CO2 before use at least 24 h later. Coverslips were transferred to the microscope stage chamber and cells visualised under IR-DIC illumination. The chamber was gravity perfused with a solution containing (in mM): 140 NaCl, 2.5 KCl, 10 HEPES, 1 NaH2PO4.H20, 2 CaCl2, 1 MgCl2, 10 glucose, with pH adjusted to 7.4 using NaOH and osmolarity adjusted to 320 mOsM using sucrose. The chamber was fed from a rapid perfusion exchanger, which continuously perfused square, multi-barrelled glass tubes, using laminar flow. Cells were patched using micropipettes filled with a solution containing (in mM): 125 KCl, 4 NaCl, 1 CaCl2, 10 HEPES, 10 EGTA, 4 MgATP, 2 Na2ATP, 2 MgCl2, 0.5 Na2GTP, pH adjusted to 7.1 with KOH and osmolarity adjusted to 320 mOsm with sucrose. The liquid junction potential was calculated to be 4.8 mV and was not corrected for. […] The current at 50 mV from each sweep was measured and plotted against time. Curves were fitted in GraphPad Prism to a one phase decay [Y= IF(X < X0, Y0, Plateau+(Y0-Plateau)*exp(-K*(X-X0))), where x = time, y = Y0 until X = X0 then decays down to plateau with one phase, K = rate constant]. τ values were calculated to determine the activation time constant.
Background: In patch-clamp work, channel activity is measured electrically.

Assay [1] addresses T2, THIK-1 K+ currents in microglia (Mus musculus, UniProt Q8R1P5).
T2 construct: To study the effect of C10248 in native brain tissue; from tissue; host or cells: microglia in acute hippocampal slices of 3-4 month old Cx3Cr1-GFP mice
The experiment in a line: Whole-cell patch clamp of microglia in acute hippocampal slices, wild-type mice. Format: cell-based. The method, then:
Acute hippocampal slices (300 μm thick), from 3 to 4 months old mice, were prepared using a specially adapted protective slicing solution ([Ting et al., 2014]) containing (mM) 93 choline chloride, 20 HEPES, 30 NaHCO3, 2.5 KCl, 0.5 CaCl2, 10 MgCl2, 1.2 NaH2PO4, 25 glucose, 1 kynurenic acid, 5 Na-ascorbate, 3 Na-pyruvate, pH adjusted to 7.4, bubbled with 95% O2/5% CO2 and cooled at <4 °C, and a recovery solution containing (mM) 92 NaCl, 20 HEPES, 30 NaHCO3, 2.5 KCl, 2 CaCl2, 1 MgCl2, 1.2 NaH2PO4, 25 glucose, 1 kynurenic acid, 5 Na-ascorbate, 3 Na-pyruvate, pH set to 7.4 and bubbled with 95% O2/5% CO2
Immediately after slicing, slices were placed for 13 min in warm (33–35 °C) slicing solution and then transferred to recovery solution at room temperature until experimental usage. […] Slices were perfused with bicarbonate-buffered solution, at 34–36 °C for all experiments, containing (mM) 124 NaCl, 2.5 KCl, 26 NaHCO3, 1 NaH2PO4, 2 CaCl2, 1 MgCl2, 10 glucose, bubbled with 95% O2/5% CO2. Microglia were whole-cell clamped with electrodes containing K-gluconate based solution, comprising (mM) 130 K-glu, 4 NaCl, 1 CaCl2, 10 HEPES, 10 EGTA, 4 MgATP, 0.5 Na2GTP, pH set to 7.2 with KOH and osmolarity adjusted to […]. […] Currents were filtered at 1 kHz, digitized (10 kHz) and analysed off-line using pClamp10 software.

T2 sequence (Q8R1P5 whole entry): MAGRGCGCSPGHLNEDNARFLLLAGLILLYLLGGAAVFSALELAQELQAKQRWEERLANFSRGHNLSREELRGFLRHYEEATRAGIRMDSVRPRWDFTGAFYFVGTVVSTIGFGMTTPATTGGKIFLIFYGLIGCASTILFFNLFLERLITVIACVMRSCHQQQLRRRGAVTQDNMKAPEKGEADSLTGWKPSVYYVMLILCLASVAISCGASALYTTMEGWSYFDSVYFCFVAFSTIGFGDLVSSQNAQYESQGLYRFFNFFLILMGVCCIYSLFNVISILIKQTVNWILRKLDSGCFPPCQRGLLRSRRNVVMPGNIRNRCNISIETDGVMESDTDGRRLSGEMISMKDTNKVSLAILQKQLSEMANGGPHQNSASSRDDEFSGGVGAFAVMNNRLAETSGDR

As to `Nc1nonc1-c1nc2ccccc2n1Cc1ccncc1` [C101248], the results for the “activation time constant (τ)” value on THIK-1 (0.5 μM) and on THIK-1 (5 μM) were 217.4 ± 61.4 s and 83.4 ± 17.2 s, respectively. The “effect on microglial resting membrane potential” value in assay [1] (5 μM, current-clamp, no externally applied ATP) is reported as “significantly depolarised”. Also, the “effect on 100 μM ATP-evoked THIK-1 K+ currents” value in assay [1] (0.05, 0.5 and 5 μM, microglia voltage-clamped at 0 mV) is listed as “dose-dependently inhibited”.
